In patent publication US20220380320A1 (priority 2019, published 2022):

Tests used:
MERS-CoV = assay: microbe, parasite or virus in culture; type: cell-based; conditions: for EC50: Middle East respiratory syndrome-related coronavirus, Vero, 24 h
in vitro = conditions: African green monkey

SMILES | SI (MERS-CoV) | EC50 (MERS-CoV) | toxicity to host cells (vero cells (ATCC CCL-81)) | CC50 (in vitro)
Cc1cccc(C)c1OCC(=O)N[C@@H](Cc1ccccc1)[C@@H](O)C[C@H](Cc1ccccc1)NC(=O)[C@H](Cc1ccccc1)N1CCCNC1=O [Compound 1, (S)-N-((2S,4S,5S)-5-(2-(2,6-dimethylphenoxy)acetamido)-4-hydroxy-1,6-diphenylhexane-2-yl)-2-(2-oxotetrahydropyrimidin-1(2H)-yl)-3-phenylpropanamide] | 21.74 | 2.03 µM | minimal toxicity | > 50 µM
Cc1cccc(C)c1OCC(=O)N[C@@H](Cc1ccccc1)[C@@H](O)C[C@H](Cc1ccccc1)NC(=O)[C@](C)(C(C)C)N1CCCNC1=O [Compound 2, (S)-N-((2S,4S,5S)-5-(2-(2,6-dimethylphenoxy)acetamido)-4-hydroxy-1,6-diphenylhexane-2-yl)-2,3-dimethyl-2-(2-oxotetrahydropyrimidin-1(2H)-yl)butanamide] |  |  | minimal toxicity | > 50 µM
Cc1cccc(C)c1OCC(=O)N[C@@H](Cc1ccccc1)[C@@H](O)C[C@H](Cc1ccccc1)NC(=O)[C@@](C)(C(C)C)N1CCCNC1=O [Compound 3, (R)-N-((2S,4S,5S)-5-(2-(2,6-dimethylphenoxy)acetamido)-4-hydroxy-1,6-diphenylhexane-2-yl)-2,3-dimethyl-2-(2-oxotetrahydropyrimidin-1(2H)-yl)butanamide] |  |  | minimal toxicity | > 50 µM
Cc1cccc(C)c1OCC(=O)N[C@@H](Cc1ccccc1)[C@@H](O)C[C@H](Cc1ccccc1)NC(=O)C1(N2CCCNC2=O)CCCC1 [Compound 4, N-((2S,4S,5S)-5-(2-(2,6-dimethylphenoxy)acetamido)-4-hydroxy-1,6-diphenylhexan-2-yl)-1-(2-oxotetrahydropyrimidine-1 (2H)-yl) cyclopentanecarboxamide] | 6.53 | 7.66 µM | minimal toxicity | > 50 µM
Cc1cccc(C[C@@H](C(=O)N[C@@H](Cc2ccccc2)C[C@H](O)[C@H](Cc2ccccc2)NC(=O)COc2c(C)cccc2C)N2CCCNC2=O)c1 [Compound 5, (S)-N-((2S,4S,5S)-5-(2-(2,6-dimethylphenoxy)acetamido)-4-hydroxy-1,6-diphenylhexane-2-yl)-2-(2-oxotetrahydropyrimidin-1(2H)-yl)-3-(m-tolyl)propanamide] | 17.91 | 2.79 µM | minimal toxicity | > 50 µM
Cc1cccc(C)c1OCC(=O)N[C@@H](Cc1ccccc1)[C@@H](O)C[C@H](Cc1ccccc1)NC(=O)[C@H](Cc1ccc(F)cc1)N1CCCNC1=O [Compound 7, (S)-N-((2S,4S,5S)-5-(2-(2,6-dimethylphenoxy)acetamido)-4-hydroxy-1,6-diphenylhexane-2-yl)-3-(4-fluorophenyl)-2-(2-oxotetrahydropyrimidin-1(2H)-yl)propanamide] | 23.96 | 2.09 µM | minimal toxicity | > 50 µM
Cc1cccc(C)c1OCC(=O)N[C@@H](Cc1ccccc1)[C@@H](O)C[C@H](Cc1ccccc1)NC(=O)[C@H](Cc1ccc(C(F)(F)F)cc1)N1CCCNC1=O [Compound 8, (S)-N-((2S,4S,5S)-5-(2-(2,6-dimethylphenoxy)acetamido)-4-hydroxy-1,6-diphenylhexane-2-yl)-2-(2-oxotetrahydropyrimidin-1(2H)-yl)-3-(4-(trifluoromethyl)phenyl)propanamide] | 40.88 | 1.22 µM | minimal toxicity | > 50 µM
Cc1cccc(C)c1OCC(=O)N[C@@H](Cc1ccccc1)[C@@H](O)C[C@H](Cc1ccccc1)NC(=O)[C@H](Cc1ccc(C#N)cc1)N1CCCNC1=O [Compound 9, (S)-3-(4-cyanophenyl)-N-((2S,4S,5S)-5-(2-(2,6-dimethylphenoxy)acetamido)-4-hydroxy-1,6-diphenylhexan-2-yl)-2-(2-oxotetrahydropyrimidin-1(2H)-yl)propanamide] | 19.33 | 2.59 µM | minimal toxicity | > 50 µM
Cc1cccc(C)c1OCC(=O)N[C@@H](Cc1ccccc1)[C@@H](O)C[C@H](Cc1ccccc1)NC(=O)[C@H](Cc1cccs1)N1CCCNC1=O [Compound 10, (S)-N-((2S,4S,5S)-5-(2-(2,6-dimethylphenoxy)acetamido)-4-hydroxy-1,6-diphenylhexane-2-yl)-2-(2-oxotetrahydropyrimidin-1(2H)-yl)-3-(thiophen-2-yl)propenamide] | 15.06 | 3.32 µM | minimal toxicity | > 50 µM
Cc1cccc(C)c1OCC(=O)N[C@@H](Cc1ccccc1)[C@@H](O)C[C@H](Cc1ccccc1)NC(=O)[C@H](C(C)C)N1CCCNC1=O [Positive control, Lopinavir, reference compound] | 4.78 | 10.5 µM |  | > 50 µM
